Test: Cytotoxicity evaluation, CCK analysis kit
Format: cell-based
Settings: human, MM.1S (CRL-2974) multiple myeloma cells; MM.1S cells, treated for 3 days
Procedure: The MM.1S (CRL-2974) cell line, which is a human multiple myeloma cell line, was purchased from the American Type Culture Collection (ATCC, Manassas, VA, USA) and used, and incubated using RPMI1640 medium (Corning, MD, USA) supplemented with 10% fatal bovine serum (Corning, MD, USA), 100 U/ml of penicillin (Corning, MD, USA), and 100 μg/ml of streptomycin (Corning, MD, USA) at 37° C. in a 5% CO2 incubator for 24 hours.

Nc1cccc2c1C(=O)N(C1CCC(=O)NC1=O)C2=O (racemic) [pomalidomide, (R,S)-4-amino-2-(2,6-dioxopiperidin-3-yl)isoindole-1,3-dione, reference compound]
IC50 at 3 days: 69 nM

Source: patent publication US20250161286A1 (AEVIS BIO, INC., priority 2022, published 2025)
